What all share (format): cell-based
One assay addresses T1, endogenous GSPT1 (Homo sapiens, UniProt P15170).
T1 construct: endogenous in cells; host or cells: Jurkat transduced with WEIS-EGFP
In words: Western blot for GSPT1 in WEIS-EGFP Jurkat cells. The conditions noted are these: Jurkat transduced with EGFP-WEIS, 18 h.

The target of assay [1] is T2, WEIS-EGFP degron in Jurkat cells (Homo sapiens, UniProt Q96SW2+Q9UKT9, N149E/Q147W/Q150I).
T2 construct: pLVX-Sprout-IKZF3 130-189aa Q147W N149E Q150I (WEIS); expressed in transfected cells
T2 sequence (Q9UKT9 130-189 Q147W/N149E/Q150I): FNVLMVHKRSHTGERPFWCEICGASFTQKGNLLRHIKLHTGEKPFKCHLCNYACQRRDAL
T2 sequence (Q96SW2 whole entry): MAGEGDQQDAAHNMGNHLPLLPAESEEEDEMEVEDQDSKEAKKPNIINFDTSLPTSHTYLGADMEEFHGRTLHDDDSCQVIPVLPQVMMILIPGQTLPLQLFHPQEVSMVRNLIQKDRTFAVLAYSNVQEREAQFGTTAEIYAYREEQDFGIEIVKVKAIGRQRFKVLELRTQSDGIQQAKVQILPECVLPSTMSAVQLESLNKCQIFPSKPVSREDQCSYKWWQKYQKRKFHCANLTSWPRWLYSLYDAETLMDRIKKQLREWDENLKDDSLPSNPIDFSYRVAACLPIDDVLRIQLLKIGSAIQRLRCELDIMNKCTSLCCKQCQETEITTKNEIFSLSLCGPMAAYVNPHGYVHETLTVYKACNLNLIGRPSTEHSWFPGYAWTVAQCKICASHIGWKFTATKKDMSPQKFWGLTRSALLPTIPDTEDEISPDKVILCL
T2 sequence (Q16531 whole entry partner): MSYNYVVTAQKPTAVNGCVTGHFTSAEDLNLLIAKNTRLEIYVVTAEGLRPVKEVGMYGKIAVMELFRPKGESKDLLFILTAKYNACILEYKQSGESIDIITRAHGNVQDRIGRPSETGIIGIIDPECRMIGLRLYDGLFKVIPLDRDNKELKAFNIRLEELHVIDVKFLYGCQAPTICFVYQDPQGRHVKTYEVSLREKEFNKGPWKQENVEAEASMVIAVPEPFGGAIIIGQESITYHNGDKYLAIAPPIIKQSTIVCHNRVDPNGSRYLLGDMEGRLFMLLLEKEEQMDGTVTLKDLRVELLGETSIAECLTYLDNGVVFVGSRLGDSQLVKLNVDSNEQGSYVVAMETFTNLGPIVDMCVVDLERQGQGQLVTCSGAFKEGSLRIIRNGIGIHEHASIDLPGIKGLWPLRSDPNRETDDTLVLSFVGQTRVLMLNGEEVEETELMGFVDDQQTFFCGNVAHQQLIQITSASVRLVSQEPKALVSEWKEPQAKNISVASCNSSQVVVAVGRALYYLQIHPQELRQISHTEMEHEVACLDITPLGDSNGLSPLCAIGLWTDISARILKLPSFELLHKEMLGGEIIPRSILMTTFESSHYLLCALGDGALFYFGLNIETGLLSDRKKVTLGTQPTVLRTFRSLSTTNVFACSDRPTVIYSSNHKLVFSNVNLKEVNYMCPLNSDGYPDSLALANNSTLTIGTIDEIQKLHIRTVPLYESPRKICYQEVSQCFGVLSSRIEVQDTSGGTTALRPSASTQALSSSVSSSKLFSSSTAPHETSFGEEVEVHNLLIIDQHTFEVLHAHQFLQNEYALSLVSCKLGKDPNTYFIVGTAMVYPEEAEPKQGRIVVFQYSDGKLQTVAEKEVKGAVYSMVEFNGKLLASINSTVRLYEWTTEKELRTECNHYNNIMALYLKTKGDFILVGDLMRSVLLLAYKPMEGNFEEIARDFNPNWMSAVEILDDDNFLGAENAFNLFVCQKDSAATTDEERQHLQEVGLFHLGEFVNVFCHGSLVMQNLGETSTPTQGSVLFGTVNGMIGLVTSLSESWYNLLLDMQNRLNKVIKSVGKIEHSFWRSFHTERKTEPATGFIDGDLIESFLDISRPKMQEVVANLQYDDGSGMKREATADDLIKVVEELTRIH
As to the kind of experiment: Time-course EGFP/mCherry flow cytometry degradation assay. The method, then:
6 WEIS degron and compound 23 selectivity. Jurkat, ESC, and MM.1S cells were treated for 16 h with the corresponding compound or DMSO control, and the protein abundance was analyzed using multiplexed TMTpro quantification mass spectrometry. […] (A) Jurkat cells were treated with compound 23. (B). Jurkat cells treated with pomalidomide. (C) ESCs were treated with compound 23. (D) ESCs were treated with pomalidomide. (E) MM.1S cells treated with compound 23. […] Values shown are the mean of three biological replicates. WEIS degron and compound 23 kinetic degradation profile. (G) Jurkat cells were transduced with the WEIS-EGFP degron, then incubated with a concentration range of compound 23 (1 pM – 10 μM) for 1–24 h [as shown] and analyzed using flow cytometry. The DMSO-normalized ratiometric values of EGFP/mCherry are shown. (H). The half-maximal (DC50) values from the assay in […] are shown. Mean and SD values are plotted from three biological replicates. […] (J) Jurkat cells were lentivirally transduced with TRIM28 with either N-terminal or C-terminal WEIS degron tag (or untagged control) and HiBit peptide tag, then incubated with a concentration curve of compound 23 (100 pM – 10 μM) for 24 h and analyzed using a HiBit luminescence assay. […] HEK293T cells were lentivirally transduced with one of three POI fusion constructs–NanoLuc, CDK9, or HPRT1–with an N-terminal HA tag and a C-terminal WEIS degron, then incubated with a concentration range of compound 23 (1 nM – 10 μM) for 18 h and analyzed using HA antibody immunoblotting. […] HEK293T cells were lentivirally transduced with NanoLuc with an N-terminal HA tag and a C-terminal WEIS degron, then incubated with a concentration curve of compound 23 (1 nM – 10 μM) for either 6 or 18 h, and analyzed using a NanoGlo luminescence assay. […]
We performed a time-course experiment in which Jurkat cells transduced with the WEIS-EGFP degron were treated with compound 23 at a range of concentrations (1 pM–10 μM) at a selection of time points, and the ratiometric degradation values of EGFP/mCherry were assessed using flow cytometry, as above. […]
In general terms: Flow cytometry measures light scatter and fluorescence of single cells or particles in a stream.

Assay [2] deals with T3, TRIM28 with C-terminal WEIS degron tag and HiBit tag (Homo sapiens, UniProt Q96SW2+Q9UKT9, N149E/Q147W/Q150I).
T3 construct: pLVX-Sprout-IKZF3 130-189aa Q147W N149E Q150I (WEIS); TRIM28 (fusion partner / protein of interest, gene TRIM28, human entry Q13263 by my knowledge); expressed in transfected cells; host or cells: Jurkat, lentiviral transduction; endogenous TRIM28 knocked out by CRISPR
T3 sequence (Q9UKT9 130-189 Q147W/N149E/Q150I): as the sequence (Q9UKT9 130-189 Q147W/N149E/Q150I) above
T3 sequence (Q96SW2 whole entry, the tested form may be a part): as the sequence (Q96SW2 whole entry) above
In words: HiBiT luminescence degradation assay. The note with it: Jurkat, 24 h.

Assay [3] has as its target T4, WEIS-EGFP in 3T3 mouse cells (UniProt Q8C7D2+Q9UKT9, N149E/Q147W/Q150I).
T4 construct: IKZF3 130aa-142aa 170-189aa fused to EGFP; EGFP (fusion partner, via a linker); expressed in transfected cells; host or cells: 3T3 mouse cells, lentivirally transduced with WEIS-EGFP-IRES-mCherry (Artichoke-derived, Addgene #73320)
As to the kind of experiment: EGFP/mCherry flow cytometry degradation assay in 3T3 cells. The conditions noted are these: 18 h; compared to human cells. The method, then:
It is also noteworthy that this system is not yet optimized for use in mouse cells, as mouse cereblon contains a key V388I mutation that prevents IMiD-induced recruitment of ZF neosubstrates. […] We anticipate that mutations could be introduced to this degron to make it mouse-compatible for future in vivo studies.
Figure S24. Dose response curve for 3T3 mouse cells lentivirally transduced with WEIS-EGFP-
IRES-mCherry incubated with a concentration curve of compound 23 (1pM – 10 μM) for 18 h and
analyzed by flow cytometry.
(1 picture or pasted object on this page, not shown here)

T1 sequence (P15170 whole entry): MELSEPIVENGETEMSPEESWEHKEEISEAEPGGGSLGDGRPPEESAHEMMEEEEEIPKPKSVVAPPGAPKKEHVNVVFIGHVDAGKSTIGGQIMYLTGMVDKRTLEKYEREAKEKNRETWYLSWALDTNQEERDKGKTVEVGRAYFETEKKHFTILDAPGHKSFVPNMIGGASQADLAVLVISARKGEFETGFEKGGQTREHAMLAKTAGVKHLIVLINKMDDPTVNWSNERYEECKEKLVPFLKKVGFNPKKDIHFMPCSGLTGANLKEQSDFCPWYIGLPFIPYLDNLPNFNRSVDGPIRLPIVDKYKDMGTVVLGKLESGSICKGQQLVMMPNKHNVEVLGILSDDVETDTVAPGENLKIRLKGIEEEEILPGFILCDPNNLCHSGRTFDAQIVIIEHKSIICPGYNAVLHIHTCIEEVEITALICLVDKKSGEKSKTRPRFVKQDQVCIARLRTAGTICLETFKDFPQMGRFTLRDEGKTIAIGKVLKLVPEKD
T4 sequence (Q9UKT9 130-189 Q147W/N149E/Q150I): as the sequence (Q9UKT9 130-189 Q147W/N149E/Q150I) above
T4 sequence (Q8C7D2 whole entry, the tested form may be a part): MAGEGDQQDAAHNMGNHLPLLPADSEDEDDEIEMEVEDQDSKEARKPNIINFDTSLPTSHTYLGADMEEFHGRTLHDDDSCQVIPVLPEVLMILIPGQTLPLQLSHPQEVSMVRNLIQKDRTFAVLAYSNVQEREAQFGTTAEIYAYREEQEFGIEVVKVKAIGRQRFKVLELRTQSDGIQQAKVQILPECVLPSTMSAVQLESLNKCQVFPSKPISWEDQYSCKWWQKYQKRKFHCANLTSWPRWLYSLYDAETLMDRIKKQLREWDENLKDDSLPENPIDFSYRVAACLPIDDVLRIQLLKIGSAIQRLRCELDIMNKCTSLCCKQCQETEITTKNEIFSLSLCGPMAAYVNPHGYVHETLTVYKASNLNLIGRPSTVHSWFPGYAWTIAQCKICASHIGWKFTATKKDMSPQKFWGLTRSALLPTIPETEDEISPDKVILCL
T4 sequence (Q3U1J4 whole entry partner, the tested form may be a part): as the sequence (Q16531 whole entry partner) above, with N418G, A495G, T745S, T1020A counted along it

As a reminder, the DC50 is the concentration at which degradation of the target reaches its halfway point. Turning to `CN1CCN(c2ccc3c(c2)C(=O)N(C2CCC(=O)NC2=O)C3=O)CC1` (stereo not shown) [Compound 23], the “degradation of endogenous GSPT1 (Western blot)” value on endogenous GSPT1 was “showed no degradation”. For the same compound, the DC50 in assay [1] (time point 1 h) is 10.3 nM; in assay [1] (time point 6 h) it was 2.3 nM; in assay [1] (time point 24 h) it was 18.3 nM; in assay [2] it was 125 nM. For the same compound, in assay [2] (with 10 μM), the D max is on record as 83%. The “WEIS-EGFP degradation in 3T3 mouse cells” value in assay [3] is recorded as “modest levels of WEIS-EGFP degradation”.
